# Test results published in patent US20170355691A1, “PESTICIDALLY ACTIVE HETEROCYCLIC DERIVATIVES WITH SULPHUR CONTAINING SUBSTITUENTS” (Syngenta Participations AG, priority 2015, published 2017).
# Key:
# Assay type in all cases: in vivo
# [1] = tested on: Spodoptera littoralis (Egyptian cotton leaf worm); test: Activity against Spodoptera littoralis, cotton leaf disc spray (Example B1); details: foliar, 72 h, L1 larvae on cotton leaf discs, 3 days after infestation, read-out: control in at least one of the three categories (mortality, anti-feedancy or growth inhibition)
# Description: Example B1: Activity Against Spodoptera littoralis (Egyptian Cotton Leaf Worm)
# Cotton leaf discs were placed on agar in 24-well microtiter plates and sprayed with aqueous test solutions prepared from 10′000 ppm DMSO stock solutions. After drying the leaf discs were infested with five L1 larvae. The samples were assessed for mortality, anti-feedant effect, and growth inhibition in comparison to untreated samples 3 days after infestation. Control of Spodoptera littoralis by a test sample is when at least one of mortality, anti-feedant effect, and growth inhibition is higher than the untreated sample. The following compounds gave an effect of at least 80% control in at least one of the three categories (mortality, anti-feedancy or growth inhibition) at an application rate of 200 ppm: P1.2, P1.3, P1.6, P1.7, P1.8, P1.9, P1.10, P1.12, P1.13, P1.14, P1.15, P1.16, P1.17 and P1.18.
# [2] = tested on: Plutella xylostella (diamond back moth); test: Activity against Plutella xylostella, artificial diet (Example B2); details: 120 h, L2 larvae on artificial diet, 5 days after infestation, read-out: effect in at least one of the two categories (mortality or growth inhibition)
# Description: Example B2: Activity Against Plutella xylostella (Diamond Back Moth)
# 24-well microtiter plates with artificial diet were treated with aqueous test solutions prepared from 10′000 ppm DMSO stock solutions by pipetting. After drying, the plates were infested with L2 larvae (10 to 15 per well). The samples were assessed for mortality and growth inhibition in comparison to untreated samples 5 days after infestation. The following compounds gave an effect of at least 80% in at least one of the two categories (mortality or growth inhibition) at an application rate of 200 ppm: P1.3, P1.6, P1.7, P1.8, P1.9, P1.13, P1.14, P1.15, P1.16, P1.17 and P1.18.
# [3] = tested on: Diabrotica balteata (corn root worm); test: Activity against Diabrotica balteata, maize sprouts (Example B3); details: 96 h, L2 larvae on maize sprouts, 4 days after infestation, read-out: effect in at least one of the two categories (mortality or growth inhibition)
# Description: Example B3: Activity Against Diabrotica balteata (Corn Root Worm)
# Maize sprouts, placed on an agar layer in 24-well microtiter plates were treated with aqueous test solutions prepared from 10′000 ppm DMSO stock solutions by spraying. After drying, the plates were infested with L2 larvae (6 to 10 per well). The samples were assessed for mortality and growth inhibition in comparison to untreated samples 4 days after infestation. The following compounds gave an effect of at least 80% in at least one of the two categories (mortality or growth inhibition) at an application rate of 200 ppm: P1.1, P1.2, P1.6, P1.7, P1.8, P1.9, P1.10, P1.13, P1.14, P1.15, P1.16, P1.17 and P1.18.
# [4] = tested on: Myzus persicae (green peach aphid); test: Activity against Myzus persicae, sunflower leaf disc spray (Example B5); details: foliar, 144 h, mixed-age aphid population on sunflower leaf discs, 6 days after infestation
# Description: Example B5: Activity Against Myzus persicae (Green Peach Aphid)
# Sunflower leaf discs were placed on agar in a 24-well microtiter plate and sprayed with aqueous test solutions prepared from 10′000 ppm DMSO stock solutions. After drying, the leaf discs were infested with an aphid population of mixed ages. The samples were assessed for mortality 6 days after infestation.
# [5] = tested on: Euschistus heros (neotropical brown stink bug); test: Activity against Euschistus heros, soybean leaf spray (Example B7); details: 120 h, N-2 nymphs on soybean leaf, 5 days after infestation
# Description: Example B7: Activity Against Euschistus heros (Neotropical Brown Stink Bug)
# Soybean leaf on agar in 24-well microtiter plates were sprayed with aqueous test solutions prepared from 10′000 ppm DMSO stock solutions. After drying the leaf were infested with N-2 nymphs. The samples were assessed for mortality 5 days after infestation.
# [6] = tested on: Anopheles stephensi (Indian malaria mosquito); test: Activity against Anopheles stephensi, dry deposit in tissue culture plates (Example B11); details: 200 ppm in ethanol, adult females, after 48 h and/or 24 h
# Description: Example B11: Activity Against Anopheles stephensi (Indian Malaria Mosquito)
# Test solutions, at an application rate of 200 ppm in ethanol, were applied to 12 well tissue culture plates. Once the deposits were dry, five, two to five day old adult female Anopheles stephensi were added to each well, and sustained with a 10% sucrose solution in a cotton wool plug. Assessment of knockdown was made one hour after introduction, and mortality was assessed at 24 and 48 hours after introduction. The following compounds gave at least 80% control of Anopheles stephensi after 48 h and/or 24 h: P1.14.
structure (smiles),measurement,setting,value
CCS(=O)(=O)c1cc(C(F)(F)F)ccc1-n1cc(-c2ccc(C(F)(F)F)nc2)cn1 [Compound P1.14],"percent control (mortality, anti-feedant effect or growth inhibition) at 200 ppm",[1],≥ 80%
same,percent effect (mortality or growth inhibition) at 200 ppm,[2],≥ 80%
same,percent effect (mortality or growth inhibition) at 200 ppm,[3],≥ 80%
same,mortality at 200 ppm,[4],≥ 80%
same,mortality at 200 ppm,[5],≥ 80%
same,control of Anopheles stephensi,[6],at least 80%
